Assay results: patent US20110009332A1, “Therapeutic Treatment Of Wounds” (SOUTHWEST RESEARCH INSTITUTE, priority 2009, published 2011)
Entries after “also recorded” stand apart in the source; their conditions may differ. Where a SMILES comes first, the peptide text is derived from it. The star is where a group is joined. Cbz = O=C(OCc1ccccc1)*; OtBu = CC(C)(C)O*

Columns and labels:
EFT400-Epidermis = assay: Skin thickness upon addition of PS-1 (EPIDERMFT EFT-400 tissue samples, in vitro); format: cell-based; conditions: for EFT400-Epidermis thickness, Trial 1: control 61; for EFT400-Epidermis thickness, Trial 3: control 66.22; for EFT400-Epidermis thickness, Trial 2: control 73.73
Procedure: Tissue samples were received and equilibrated for treatment. Media was retained for enzyme-linked immunosorbent assay (ELISA) using an EPIDERMFT kit, product number EFT-400. On the second day, PS-1 treatment was added to the samples, wherein the media was exchanged with compound in 4 ml. More specifically, three samples were maintained as control samples and included DMSO at a concentration of 62 μm/10 ml, with no added PS-1 treatment, 0.1 μM (0.620/10 ml) was added to three samples, 1 μM (0.620/10 ml) was added to three samples, and 10 μM (0.620/10 ml) was added to three samples.
The samples were left to incubate on days 3-5 and on day 6, the media was exchanged again. On the seventh day, tissue samples were removed and conditioned media was saved for ELISA. The samples were then measured using […].
FIG. 2 illustrates changes in the epidermis thickness versus the amount of PS-1 added to the assays and the supporting data is presented in Table 1 below. […] FIGS. 3 through 5 illustrate the difference in thickness as between the control samples and the 10 μl/ml samples at 10× magnification and 40× magnification.

[1] = tested on: TGF-β1 protein expression in human dermal fibroblast cells; assay: TGF-β1 protein expression in normal and PMA-challenged human dermal fibroblasts; format: cell-based; conditions: PS-1 0 nM to 10000 nM
Procedure: Cyto-toxicity analysis was performed to illustrate the inhibition of TGF-131 in human dermal fibroblasts. Both normal human dermal fibroblast cells (i.e., undamaged or non-wounded skin cells) and challenged (damaged) human dermal fibroblast cells were treated with concentrations of PS-1 ranging from 0 nM to 10000 nM and the effect of the various PS-1 concentrations on the normal and challenged cells was measured. It is noted that the challenged human dermal fibroblast cells were treated in vitro with 10 nM of phorbol 12-myristate 13-acetate (PMA) to simulate wounding. […] FIG. 11 illustrates TGF-131 protein expression upon addition of PS-1 in cells challenged by the addition of the 10 nM of PMA.

[2] = tested on: incisional wounds of Sprague-Dawley rats; assay: Incisional wound healing model: tensometry and wound thickness; format: in vivo
Source text: (§1) Using a standard incisional wound healing model, two 6 cm linear incisions were made through the panniculus carnosum on the dorsal aspect of 10 to 12 week old male Sprague-Dawley rats 1 centimeter on either side of midline running cephalid to caudal using a prefabricated template. Three surgical clips were used to close the incision and serve as guides for sectioning on harvest day.
(§2) Rats were randomly assigned to 1 of 3 treatment groups, indentified by the treatment administered to the wound located on the left. All wounds located on the right, regardless of treatment group, received vehicle (100% DMSO) as a control. […] Treatment was administered by applying 100 micro liters into (at time of closure) or onto the wound every 24 hours for the first 48 hours beginning at the time of wound closure, totaling 3 doses per wound.
(§3) On days 7, 14 and 28 post-wounding, the rats were euthanized and the entire dorsal skin excised. Four 8 mm sample strips were cut perpendicular to the wounds, to incorporate both the treated wound and the adjacent vehicle wound. The sample strips were then cut in half, equidistance from the two parallel wounds, yielding a total of four samples per wound, and yielding a compliment vehicle wound for each treated sample. One cephalic and one caudle sample were immediately prepared for histology, with the remaining two strips immediately prepared for tensometry.
Prior to sample loading for testing by tensometry, the underlying subcutaneous fascia was removed to the level of the panniculus carnosum using sharp dissection, following a natural dissection plane. For the day 28 wounds, the 8 mm samples were divided into 4 mm strips prior to loading secondary to slippage issues encountered during the pilot study. Samples were loaded into a Lloyd Instrument materials testing system (model LRX plus, Fareham, Hampshire, UK) with a 50 N load cell, with the wounds perpendicular to the grips and pulled at a rate of 200 mm/min. Wound thickness, just superficial to epithelium and just deep to panniculus carnosum, was measured at the time of testing with digital calipers (Absolute Digimatic Caliper, Mitutoyo, Kawasaki, Kanagawa, Japan). The wound width was measured at a preload of 0.5N by obtaining the correlating still frame image from a hands free mounted video camera (HDR-SR1 Handycam® camcorder, Sony, San Diego, Calif.). These two measurements were then used to calculate the cross sectional area of the wounds and the subsequent tensile strength (N/mm^2).
(§4) A paired student's t-test was used for statistical comparisons between adjacent wounds. A tukey's comparison was used for statistical comparison of wounds between different rats. A Kruskal-Wallis test was used for comparing graded histology. A Chi square was used to determine statistical meaning of epithelial necrosis.

[3] = tested on: incisional wounds of Sprague-Dawley rats; assay: Incisional wound healing model: histology; format: in vivo; conditions: for Overall Dermal Collagen Response: histology score; for wounds presenting with some degree of epithelial hyperplasia: control rats 60%
Source text: as §1, §2, §3
Histological samples were fixed in 10% formalin, routinely processed, embedded in paraffin, and sectioned at approximately 5 μm. Cross sections of skin were stained with hematoxylin and eosin (H&E) and Masson's Trichrome using routine methods. All slides were subjectively evaluated on an Olympus BX40 microscope (Olympus America, Center Valley, Pa.) by a board-certified veterinary pathologist blinded to the treatment groups. The following parameters were determined for each sample: (1) collagen density (0=no mature collagen, 1=loose, 2=intermediate, 3=dense); (2) collagen maturity (1=immature, 2=intermediate, 3=mature); (3) amount and type of inflammation present in the dermis (0=none, 1=minimal, 2=mild, 3=moderate, 4=severe); (4) epithelial hyperplasia (0=none, 1=minimal, 2=mild, 3=moderate, 4=severe); (5) amount of epidermal necrosis over wound (0=0%, 1=25%, 2=50%, 3=75%, 4=100). Images were captured using an Olympus BX41 microscope (Olympus America, Center Valley, Pa.) and an Olympus DP71 digital camera (Olympus America, Center Valley, Pa.). Captured images of Masson's Trichrome sections under a 4× objective were uploaded into ImageJ (NIH) in order to calculate the cross sectional area of immature collagen within day 28 wounds. For statistical purposes, samples were averaged to provide a single score in each parameter per wound.
as §4

CC[C@H](C)[C@H](NC(=O)OCc1ccccc1)C(=O)N[C@@H](CCC(=O)OC(C)(C)C)C(=O)N[C@@H](C)C(=O)N[C@H](C=O)CC(C)C [PS-1, Z-Ile-Glu(OBu^t)-Ala-Leu-H] (Cbz-IE(OtBu)AL-aldehyde)
EFT400-Epidermis thickness, Trial 1 (EFT400-Epidermis; 0.1 μM PS-1): 69.47 microns
EFT400-Epidermis thickness, Trial 3 (EFT400-Epidermis; 0.1 μM PS-1): 78.82 microns
EFT400-Epidermis thickness, Trial 2 (EFT400-Epidermis; 0.1 μM PS-1): 61.85 microns
EFT400-Epidermis thickness, Trial 1 (EFT400-Epidermis; 1 μM PS-1): 59.13 microns
EFT400-Epidermis thickness, Trial 3 (EFT400-Epidermis; 1 μM PS-1): 61.6 microns
EFT400-Epidermis thickness, Trial 2 (EFT400-Epidermis; 1 μM PS-1): 54.09 microns
EFT400-Epidermis thickness, Trial 1 (EFT400-Epidermis; 10 μM PS-1): 106.31 microns
EFT400-Epidermis thickness, Trial 3 (EFT400-Epidermis; 10 μM PS-1): 100.16 microns
EFT400-Epidermis thickness, Trial 2 (EFT400-Epidermis; 10 μM PS-1): 96.2 microns
thickness of the resultant epidermis in vitro (in words) (EFT400-Epidermis; addition of 10 μm, compared with the other samples): relatively significant increase in the thickness
stratum granulosum formation (in words) (EFT400-Epidermis; treated samples vs control samples, FIGS. 3-5): relatively well formed stratum granulosum; also recorded: relatively better developed stratum granulosum
TGF-β1 protein expression (in words) ([1]; cells challenged with 10 nM PMA, FIG. 11): reduced TGF-β1 protein expression to similar levels seen in normal cells
TGF-β1 protein expression (in words) ([1]; normal human dermal fibroblast cells, FIG. 10): relatively little change in TGF-β1 protein expression
normalization of wound thickness (in words) ([2]; after PS-1 treatment): normalized faster
tensile strength vs untreated wounds (in words) ([2]; day 7 post-wounding, high dose (5% w/w in DMSO), p=0.0223): significantly lower
tensile strength vs untreated wounds (in words) ([2]; day 7 post-wounding, low dose (1% w/w in DMSO), p=0.0121): significantly lower
tensile strength, differences between wounds (in words) ([2]; day 14 post-wounding, all wounds): no significant differences in tensile strength
wound thickness vs untreated control wounds (in words) ([2]; day 28, 1% PI, p=0.057): thinner than untreated control wounds, but just lacked significance
wound thickness vs untreated control wounds (in words) ([2]; day 28, 5% PI, p=0.013): significantly thinner
tensile strength vs untreated wounds (in words) ([2]; day 28 post-wounding, 1% PI): no significant difference
tensile strength vs untreated wounds (in words) ([2]; day 28 post-wounding, 5% PI, p=0.0269): significantly increased tensile strength
Overall Dermal Collagen Response ([3]; PS-1 1% treated wounds, Day 7, control 0.8 ± 0.3): 0.8 ± 0.3
Overall Dermal Collagen Response ([3]; PS-1 1% treated wounds, Day 14, control 1.9 ± 0.3): 2.1 ± 0.3
Overall Dermal Collagen Response ([3]; PS-1 1% treated wounds, Day 28, control 2.6 ± 0.5): 2.9 ± 0.3
Overall Dermal Collagen Response ([3]; PS-1 5% treated wounds, Day 7, control 0.8 ± 0.3): 0.7 ± 0.3
Overall Dermal Collagen Response ([3]; PS-1 5% treated wounds, Day 14, control 1.9 ± 0.3): 2.0 ± 0.0
Overall Dermal Collagen Response ([3]; PS-1 5% treated wounds, Day 28, control 2.6 ± 0.5): 2.8 ± 0.3
accumulation of neutrophils in the dermis (in words) ([3]; day 14, most notable in rats receiving 1% PI): nearly extinct
wounds presenting with some degree of epithelial hyperplasia ([3]; day 28, 1% PI rats): 8 % of wounds
wounds presenting with some degree of epithelial hyperplasia ([3]; day 28, 5% PI rats): 20 % of wounds
macrophage and lymphocyte accumulates (in words) ([3]; day 28, most notably low dose rat wounds, FIG. 20): continued to decline
histology finding in the subcutaneous tissue beneath the panniculus carnosum (in words) ([3]; wounds receiving direct administration of the PI, seemingly dose dependent): foreign body reaction
